Source: publication PMC9849758, “Chemically diverse activity-based probes with unexpected inhibitory mechanisms targeting trypsin-like serine proteases” (Frontiers in Chemistry, 2023)
“Also recorded” adds a separate entry of the source. Structures can show the parent of a compound that is named as a salt.

Tests used:
[1] = target: T1, β-tryptase (Homo sapiens, UniProt P20231); assay: Jump dilution, determination of inhibition type; type: biochemical; set-up: purchased EnzoLife Sciences; details: inhibitor at 10 times IC50, 15 min, diluted 10-fold or 100-fold; Rev./Irrev.
Method: (§1) The dissociation of the enzyme-inhibitor complex was monitored by substrate hydrolysis over time ([Joossens et al., 2006]).
(§2) Because ABPs are designed to be irreversible serine protease inhibitors, the IC50 is exclusively used as a first discriminatory evaluation. When an inhibitor is irreversible, its IC50 value not only depends on the substrate and enzyme concentration but also on the time of incubation with the enzyme before the reaction is started by adding the substrate. […] The progress curve in the presence of an irreversible inhibitor will show final velocities equal to zero (Figure 6C). In contrast, for a reversible inhibitor, progress curves have a non-zero final steady-state velocity (Figure 6A) ([McWhirter, 2021]). To corroborate the inhibitory mechanism of the compounds, jump-dilution assays were performed. These use an inhibitor concentration of 10-fold the IC50 for the incubation, and a posteriori, the reaction mixture is diluted 10-fold or 100-fold before adding the substrate. In the case of an irreversible inhibitor, enzymatic activity is not regained (Figure 6D), whereas, in the case of a reversible compound, a slow release of the inhibitor and a gradual increase of the enzymatic activity rate is observed (Figure 6B) ([Copeland, 2013]; [McWhirter, 2021]). The jump-dilution assays confirmed the behavior described by the progress curves.
(§3) 2.2.2 Jump dilution results
(§4) Supplementary Table 2. Jump dilution of selected alkyne and desthiobiotin probes against a panel of trypsin-like serine proteases. […]
(§5) # R R DtBa 3 tryptase Thrombin uPA CatG
(§6) 32b H Alk Irrev. Irrev. Rev. Irrev. Rev.
(§7) 45b DtB Irrev. Irrev. Rev. N.D. N.D.
(§8) 33b Alk Irrev. Irrev. Rev. Irrev. Rev.
(§9) 46b Cl DtB Irrev. Irrev. Rev. N.D. N.D.
(§10) 34b H Alk Rev. Rev. Rev. Irrev. Rev.
(§11) 50b DtB Rev. Rev. Rev. Irrev. Rev.
(§12) 35b Alk Rev. Rev. Rev. Irrev. Rev.
(§13) 52b NHCOMe DtB Rev. Rev. Rev. Irrev. Rev.
(§14) 36b Alk Rev. Rev. Rev. Irrev. Rev.
(§15) 54b Cl DtB Rev. Rev. Rev. Irrev. Rev.
(§16) 37b Alk Irrev. Irrev. N.D. Irrev. Irrev.
(§17) 55b H DtB Irrev. Irrev. N.D. Irrev. Irrev.
(§18) 38b Alk Irrev. Irrev. N.D. Irrev. Irrev.
(§19) 56b NHCOMe DtB Irrev. Irrev. N.D. Irrev. Irrev.
(§20) 39b Alk Irrev. Irrev. N.D. Irrev. Rev.
(§21) 57b Cl DtB Irrev. Irrev. N.D. Irrev. Rev.
(§22) 41b H Alk Irrev. Irrev. Irrev. N.D. N.D.
(§23) 31b Pro-Lys H Alk Irrev. Irrev. Irrev. Irrev. N.D. a Alk: ABP precursor bearing an alkyne; DtB: desthiobiotin probe b Panel of serine proteases abbreviations: urokinase plasminogen activator (uPA), cathepsin G (catG) N.D.: IC50 is greater than 10µM, and jump dilution was not performed
(§24) 2.2.3 Progress curves and Jump dilution experiments
(§25) Kinetic assays were performed in the following manner. The inhibitor was mixed with the substrate, and the buffer solution with the enzyme was added at the time zero. The progress curves show the release of para-nitroaniline (pNA) or 7-amino-4-methyl coumarin (AMC) as a function of time.
(§26) To monitor the dissociation of the inhibitor-enzyme, aliquots of the enzyme were incubated at 37 °C without and with the inhibitor at a concentration 10 times higher than its IC 50. The enzyme […]
(§27) min, the aliquots were diluted 10-fold or 100-fold into the substrate concentration and assay buffer used for the IC50 determination. The dissociation of the enzyme-inhibitor complex was monitored by substrate hydrolysis over time. Blue lines represent the control where no inhibitor was present. Pink lines represent the assay with inhibitor.

[2] = target: T2, CatG (Homo sapiens, UniProt P08311); assay: Jump dilution, determination of inhibition type; type: biochemical; set-up: Cathepsin G (cathepsin G human neutrophil, Sigma-Aldrich); purchased Sigma-Aldrich; details: inhibitor at 10 times IC50, 15 min, diluted 10-fold or 100-fold; Rev./Irrev.
T2 sequence (P08311 21-255): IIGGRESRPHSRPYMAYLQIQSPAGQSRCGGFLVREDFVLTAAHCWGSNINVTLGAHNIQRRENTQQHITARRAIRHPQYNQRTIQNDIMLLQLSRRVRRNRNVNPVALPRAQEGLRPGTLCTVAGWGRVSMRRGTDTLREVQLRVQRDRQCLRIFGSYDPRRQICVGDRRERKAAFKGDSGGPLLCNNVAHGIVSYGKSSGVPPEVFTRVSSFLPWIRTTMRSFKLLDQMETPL
Method: as §1, §2, §3, §4, §5, §6, §7, §8, §9, §10, §11, §12, §13, §14, §15, §16, §17, §18, §19, §20, §21, §22, §23, §24, §25, §26, §27

[3] = target: T3, Thrombin (Homo sapiens, UniProt P00734); assay: Jump dilution, determination of inhibition type; type: biochemical; details: inhibitor at 10 times IC50, 15 min, diluted 10-fold or 100-fold; Rev./Irrev.
T3 construct: purchased R&D
Method: as §1, §2, §3, §4, §5, §6, §7, §8, §9, §10, §11, §12, §13, §14, §15, §16, §17, §18, §19, §20, §21, §22, §23, §24, §25, §26, §27

[4] = target: T1, β-tryptase; assay: Labeling and detection of recombinant proteases (SDS-PAGE blot, NeutrAvidin-HRP); type: binding; details: 1 µM ABP, 100 ng protease, 30 min 37°C, denaturing SDS-PAGE blot
Method: Recombinant proteases (100 ng) were labeled with 1 µM ABP in reaction buffer in a final volume of 40 µL for 30 min at 37°C. After the addition of 4X Laemmli buffer (Bio-Rad, GmbH) supplemented with Bond-Breaker Tris (2-CarboxyEthyl)Phosphine (TCEP) Solution (Thermo Scientific, United States), the samples were heated at 95°C for 5 min and loaded into 4%–20% Mini-Protean TGX precast gels (Bio-Rad, GmbH). After electrophoresis, the proteins were blotted onto nitrocellulose membranes using the Trans-Blot Transfer Turbo System (Bio-Rad). Membranes were incubated with NeutrAvidin-HRP (1:50,000), and bands were visualized with ECL Select Western Blot Detection Reagent (GE Healthcare Life Sciences) by chemiluminescence (Chemidoc XRS; Bio-Rad). The molecular weight of each band was determined with the Image Lab Software v5 (Bio-Rad).
To further characterize the newly synthesized compounds and their potential to be used as ABPs, nine desthiobiotin probes were used for the labeling and detection of recombinant proteases. The arginine (45b–46b) and the proline-lysine (58b) desthiobiotin probes were used as reference compounds. Whereas the benzyl guanidine (50b, 52b, 54b) and phenyl guanidine probes (55b–57b) were used to determine whether the mechanism of inhibition (reversible or irreversible) is an obstacle to visualize the proteases. Samples of human recombinant proteases (trypsin-3, β-tryptase, and CatG) were incubated with the different probes before electrophoresis and detection with NeutrAvidin-HRP on a Western blot. Figure 7A illustrates the ability of the desthiobiotin probes to indicate the presence of the corresponding trypsin-like enzyme. […] This effect can be explained due to the strong interactions between the active site of the protease and the probes. The high affinity and the slow off-rates were described in Table 5 by the equilibrium constants KI*. Assuming that there is an excess of inhibitor over enzyme, the free inhibitor concentration must be very low, lower than the KI*, in order for the complex to dissociate. Therefore, the high affinity complex E*I survives during the whole process of labeling, gel electrophoresis, and visualization.

T1 sequence (P20231 31-275): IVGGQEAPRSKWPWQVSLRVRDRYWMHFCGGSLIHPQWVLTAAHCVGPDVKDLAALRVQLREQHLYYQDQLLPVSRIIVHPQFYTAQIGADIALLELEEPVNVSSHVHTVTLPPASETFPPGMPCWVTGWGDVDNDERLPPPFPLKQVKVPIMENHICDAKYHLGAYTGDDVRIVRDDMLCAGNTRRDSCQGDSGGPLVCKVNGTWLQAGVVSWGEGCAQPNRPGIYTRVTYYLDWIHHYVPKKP

| SMILES | β-tryptase jump dilution result [1] | CatG jump dilution result [2] | Thrombin jump dilution result [3] | labeling of recombinant β-tryptase [4] |
| --- | --- | --- | --- | --- |
| C#CCCCOC(=O)NC(c1ccc(NC(=N)N)cc1)P(=O)(Oc1ccccc1)Oc1ccccc1.O=C(O)C(F)(F)F (stereo not drawn) [37b, Pent-4-yn-1-yl ((diphenoxyphosphoryl)(4-guanidinophenyl)methyl)carbamate trifluoroacetate salt] | Irrev. | Irrev. |  |  |
| C#CCCCOC(=O)NC(CCCNC(=N)N)P(=O)(Oc1ccccc1)Oc1ccccc1 (stereo not drawn) [32b] | Irrev. | Rev. | Rev. |  |
| C#CCCCOC(=O)NC(Cc1ccc(NC(=N)N)cc1)P(=O)(Oc1ccccc1)Oc1ccccc1 (stereo not drawn) [34b] | Rev. | Rev. | Rev. |  |
| C#CCCCOC(=O)NC(Cc1ccc(NC(=N)N)cc1)P(=O)(Oc1ccc(NC(C)=O)cc1)Oc1ccc(NC(C)=O)cc1 (stereo not drawn) [35b] | Rev. | Rev. | Rev. |  |
| C#CCCCOC(=O)NC(C1CCN(C(=N)N)CC1)P(=O)(Oc1ccccc1)Oc1ccccc1 (stereo not drawn) [41b] | Irrev. |  | Irrev. |  |
| C[C@@H]1NC(=O)N[C@@H]1CCCCCC(=O)NCCOCCOCCOCCn1cc(CCCOC(=O)NC(CCCNC(=N)N)P(=O)(Oc2ccccc2)Oc2ccccc2)nn1 (stereo partly drawn) [45b] | Irrev. |  | Rev. | not good ABP candidates |
| CC(=O)Nc1ccc(OP(=O)(Oc2ccc(NC(C)=O)cc2)C(NC(=O)OCCCc2cn(CCOCCOCCOCCNC(=O)CCCCC[C@H]3NC(=O)N[C@H]3C)nn2)c2ccc(NC(=N)N)cc2)cc1 (stereo partly drawn) [56b] | Irrev; also recorded: Irreversible | Irrev. |  |  |
| C[C@@H]1NC(=O)N[C@@H]1CCCCCC(=O)NCCOCCOCCOCCn1cc(CCCOC(=O)NC(Cc2ccc(NC(=N)N)cc2)P(=O)(Oc2ccccc2)Oc2ccccc2)nn1 (stereo partly drawn) [50b, 3-(1-(18-((4R,5S)-5-methyl-2-oxoimidazolidin-4-yl)-13-oxo-3,6,9-trioxa-12-azaoctadecyl)-1H-1,2,3-triazol-4-yl)propyl (1-(diphenoxyphosphoryl)-2-(4-guanidinophenyl)ethyl)carbamate trifluoroacetate salt] | Rev. | Rev. | Rev. | can label |
| C#CCCCOC(=O)NC(CCCNC(=N)N)P(=O)(Oc1ccc(Cl)cc1)Oc1ccc(Cl)cc1 (stereo not drawn) [33b] | Irrev. | Rev. | Rev. |  |
| C#CCCCOC(=O)NC(c1ccc(NC(=N)N)cc1)P(=O)(Oc1ccc(Cl)cc1)Oc1ccc(Cl)cc1 (stereo not drawn) [39b, Pent-4-yn-1-yl ((bis(4-chlorophenoxy)phosphoryl)(4-guanidinophenyl)methyl)carbamate] | Irrev. | Rev. |  |  |
| CC(=O)Nc1ccc(OP(=O)(Oc2ccc(NC(C)=O)cc2)C(Cc2ccc(NC(=N)N)cc2)NC(=O)OCCCc2cn(CCOCCOCCOCCNC(=O)CCCCC[C@H]3NC(=O)N[C@H]3C)nn2)cc1 (stereo partly drawn) [52b] | Rev. and Reversible | Rev. | Rev. | can label |
| C#CCCCOC(=O)NC(Cc1ccc(NC(=N)N)cc1)P(=O)(Oc1ccc(Cl)cc1)Oc1ccc(Cl)cc1 (stereo not drawn) [36b] | Rev. | Rev. | Rev. |  |
| C[C@@H]1NC(=O)N[C@@H]1CCCCCC(=O)NCCOCCOCCOCCn1cc(CCCOC(=O)NC(CCCNC(=N)N)P(=O)(Oc2ccc(Cl)cc2)Oc2ccc(Cl)cc2)nn1 (stereo partly drawn) [46b] | Irrev. |  | Rev. | not good ABP candidates |
| C[C@@H]1NC(=O)N[C@@H]1CCCCCC(=O)NCCOCCOCCOCCn1cc(CCCOC(=O)NC(c2ccc(NC(=N)N)cc2)P(=O)(Oc2ccccc2)Oc2ccccc2)nn1 (stereo partly drawn) [55b] | Irrev. | Irrev. |  |  |
| C[C@@H]1NC(=O)N[C@@H]1CCCCCC(=O)NCCOCCOCCOCCn1cc(CCCOC(=O)NC(c2ccc(NC(=N)N)cc2)P(=O)(Oc2ccc(Cl)cc2)Oc2ccc(Cl)cc2)nn1 (stereo partly drawn) [57b] | Irrev. | Rev. |  | slightly better resolution |
| C[C@@H]1NC(=O)N[C@@H]1CCCCCC(=O)NCCOCCOCCOCCn1cc(CCCOC(=O)NC(Cc2ccc(NC(=N)N)cc2)P(=O)(Oc2ccc(Cl)cc2)Oc2ccc(Cl)cc2)nn1 (stereo partly drawn) [54b] | Rev. | Rev. | Rev. | can label; also recorded: slightly better resolution |
| C#CCCCOC(=O)NC(c1ccc(NC(=N)N)cc1)P(=O)(Oc1ccc(NC(C)=O)cc1)Oc1ccc(NC(C)=O)cc1 (stereo not drawn) [38b, Pent-4-yn-1-yl ((bis(4-acetamidophenoxy)phosphoryl)(4-guanidinophenyl)methyl) carbamate] | Irrev. | Irrev. |  |  |
